Among the data in PubChem BioAssay AID248 (DTP/NCI, 2004) are T/C values, retold here.

Structures are written as SMILES. “And” between values parts separate entries of the source, which are not always exact repeats. Identical values can stand only once. Inconclusive results and toxic doses are left out.

The test system of the experiment is L1210 leukemia ip in BDF1 mice, survival T/C. The experiment in a line: NCI In Vivo Anticancer Drug Screen. Data for tumor model L1210 Leukemia (intraperitoneal) in B6D2F1 (BDF1) mice. The settings on record: endpoint: mean survival time, higher = longer survival. The method in brief: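 Mice bearing the transplanted tumor received compound or vehicle. Survival of the treated group was divided by that of the vehicle-treated control group to give the ratio.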

The mark [1] stands for this setting: dose: 100.0 mg/kg/injection, schedule: Q01DX009 (ip), vehicle: Klucel (hydroxypropylcellulose) (HPC).
Setting [2] is: dose: 100.0 mg/kg/injection, schedule: Q04DX003 (ip), vehicle: Klucel (hydroxypropylcellulose) (HPC).
Where [3] appears, read: dose: 200.0 mg/kg/injection, schedule: Q01DX009 (ip), vehicle: Klucel (hydroxypropylcellulose) (HPC).
Setting [4] is: dose: 200.0 mg/kg/injection, schedule: Q04DX003 (ip), vehicle: Klucel (hydroxypropylcellulose) (HPC).
[5] abbreviates: dose: 400.0 mg/kg/injection, schedule: Q01DX009 (ip), vehicle: Klucel (hydroxypropylcellulose) (HPC).
[6] abbreviates: dose: 400.0 mg/kg/injection, schedule: Q04DX003 (ip), vehicle: Klucel (hydroxypropylcellulose) (HPC).
Setting [7] is: dose: 100.0 mg/kg/injection, schedule: Q04DX003 (ip), vehicle: saline with Tween-80.
The mark [8] stands for this setting: dose: 200.0 mg/kg/injection, schedule: Q04DX003 (ip), vehicle: saline with Tween-80.
The mark [9] stands for this setting: dose: 400.0 mg/kg/injection, schedule: Q04DX003 (ip), vehicle: saline with Tween-80.
[10] abbreviates: dose: 100.0 mg/kg/injection, schedule: Q01DX009 (ip), vehicle: saline with Tween-80.
[11] abbreviates: dose: 200.0 mg/kg/injection, schedule: Q01DX009 (ip), vehicle: saline with Tween-80.
The mark [12] stands for this setting: dose: 400.0 mg/kg/injection, schedule: Q01DX009 (ip), vehicle: saline with Tween-80.
Setting [13] is: dose: 100.0 mg/kg/injection, schedule: Q01DX001 (ip), vehicle: saline.
The mark [14] stands for this setting: dose: 200.0 mg/kg/injection, schedule: Q01DX001 (ip), vehicle: saline.
Setting [15] is: dose: 400.0 mg/kg/injection, schedule: Q01DX001 (ip), vehicle: saline.

Turning to `O=C(/C=C/c1cccc([N+](=O)[O-])c1)c1cccc([N+](=O)[O-])c1`, the T/C was 94 % of control (dose: 12.5 mg/kg/injection, schedule: Q01DX009 (ip), vehicle: Klucel (hydroxypropylcellulose) (HPC)); 92 % of control (dose: 25.0 mg/kg/injection, schedule: Q01DX009 (ip), vehicle: Klucel (hydroxypropylcellulose) (HPC)); 94 % of control (dose: 25.0 mg/kg/injection, schedule: Q04DX003 (ip), vehicle: Klucel (hydroxypropylcellulose) (HPC)); 87 % of control (dose: 50.0 mg/kg/injection, schedule: Q01DX009 (ip), vehicle: Klucel (hydroxypropylcellulose) (HPC)); 103 % of control (dose: 50.0 mg/kg/injection, schedule: Q04DX003 (ip), vehicle: Klucel (hydroxypropylcellulose) (HPC)).

In the case of `CNC(=O)c1ccccc1C(O)(c1ccccc1)c1ccccc1`, the T/C is, setting by setting: under setting [1], 95 % of control; under setting [2], 94 % of control; under setting [3], 98 % of control; under setting [4], 97 % of control; under setting [5], 101 % of control; under setting [6], 90 % of control.

For the molecule `CSc1ccc(NC(=O)Sc2ccccc2C)cc1`, the T/C runs as follows: (dose: 75.0 mg/kg/injection, schedule: Q01DX001 (ip), vehicle: Klucel (hydroxypropylcellulose) (HPC)) 95 % of control; (dose: 75.0 mg/kg/injection, schedule: Q01DX009 (ip), vehicle: Klucel (hydroxypropylcellulose) (HPC)) 93 % of control and 95 % of control; (dose: 75.0 mg/kg/injection, schedule: Q04DX003 (ip), vehicle: Klucel (hydroxypropylcellulose) (HPC)) 103 % of control; under setting [1], 95 % of control and 103 % of control; (dose: 100.0 mg/kg/injection, schedule: Q04DX002 (ip), vehicle: Klucel (hydroxypropylcellulose) (HPC)) 98 % of control and 105 % of control; (dose: 150.0 mg/kg/injection, schedule: Q01DX001 (ip), vehicle: Klucel (hydroxypropylcellulose) (HPC)) 94 % of control. The T/C by setting is: (dose: 150.0 mg/kg/injection, schedule: Q01DX009 (ip), vehicle: Klucel (hydroxypropylcellulose) (HPC)) 101 % of control; (dose: 150.0 mg/kg/injection, schedule: Q04DX003 (ip), vehicle: Klucel (hydroxypropylcellulose) (HPC)) 87 % of control; under setting [3], 109 % of control; (dose: 200.0 mg/kg/injection, schedule: Q04DX002 (ip), vehicle: Klucel (hydroxypropylcellulose) (HPC)) 97 % of control; (dose: 300.0 mg/kg/injection, schedule: Q01DX001 (ip), vehicle: Klucel (hydroxypropylcellulose) (HPC)) 96 % of control; (dose: 300.0 mg/kg/injection, schedule: Q01DX009 (ip), vehicle: Klucel (hydroxypropylcellulose) (HPC)) 86 % of control and 88 % of control. Also, the T/C is 91 % of control (dose: 300.0 mg/kg/injection, schedule: Q04DX003 (ip), vehicle: Klucel (hydroxypropylcellulose) (HPC)); 93 % of control and 94 % of control (dose: 400.0 mg/kg/injection, schedule: Q04DX002 (ip), vehicle: Klucel (hydroxypropylcellulose) (HPC)).

For the molecule `CC(=O)N1CCn2nccc21`, the T/C (dose: 100.0 mg/kg/injection, schedule: Q01DX009 (ip), vehicle: water) was 103 % of control; the T/C (dose: 100.0 mg/kg/injection, schedule: Q04DX003 (ip), vehicle: water) was 97 % of control; the T/C (dose: 200.0 mg/kg/injection, schedule: Q01DX009 (ip), vehicle: water) is 112 % of control; the T/C (dose: 200.0 mg/kg/injection, schedule: Q04DX003 (ip), vehicle: water) is 106 % of control; the T/C (dose: 240.0 mg/kg/injection, schedule: Q01DX009 (ip), vehicle: saline) was 109 % of control; the T/C (dose: 240.0 mg/kg/injection, schedule: Q01DX009 (ip), vehicle: water) is 110 % of control. The T/C runs as follows: (dose: 400.0 mg/kg/injection, schedule: Q01DX009 (ip), vehicle: saline) 122 % of control; (dose: 400.0 mg/kg/injection, schedule: Q04DX003 (ip), vehicle: water) 106 % of control; (dose: 666.0 mg/kg/injection, schedule: Q01DX009 (ip), vehicle: saline) 122 % of control; (dose: 666.0 mg/kg/injection, schedule: Q01DX009 (ip), vehicle: water) 90 % of control.

For `NC(=O)c1ccccc1NC(=O)Nc1ccc(Cl)cc1`, the T/C is 98 % of control under setting [1], 96 % of control under setting [3] and 91 % of control under setting [5].

Take `NC(CCC(=O)Nc1cccc2ccccc12)C(=O)O` (stereo unspecified): the T/C reads like this: under setting [7], 105 % of control; under setting [8], 100 % of control; under setting [9], 106 % of control.

For the molecule `CC(Cc1ccccc1)Cc1ccccc1`, the T/C is 96 % of control under setting [7], 88 % of control under setting [8] and 98 % of control under setting [9].

As to `Nc1nc(N)c2c(Cl)c(CNc3ccc(C(=O)NC(CCCC(=O)O)C(=O)O)cc3)ccc2n1` (stereo unspecified), the T/C is 170 % of control (dose: 1.0 mg/kg/injection, schedule: Q01DX009 (ip), vehicle: saline); 150 % of control and 152 % of control (dose: 2.0 mg/kg/injection, schedule: Q01DX009 (ip), vehicle: saline); 178 % of control and 206 % of control (dose: 4.0 mg/kg/injection, schedule: Q01DX009 (ip), vehicle: saline).

For `CCCC(C)(C)C(=O)Nc1cccc(OC(=O)NC(C)C)c1`, the T/C by setting is: under setting [10], 96 % of control; under setting [11], 86 % of control; under setting [12], 91 % of control.

In the case of `O=C1C=CC(=O)N1`, the T/C is 90 % of control (dose: 0.62 mg/kg/injection, schedule: Q01DX009 (ip), vehicle: saline); 93 % of control (dose: 1.25 mg/kg/injection, schedule: Q01DX009 (ip), vehicle: saline); 92 % of control (dose: 1.25 mg/kg/injection, schedule: Q04DX003 (ip), vehicle: saline); 90 % of control (dose: 2.5 mg/kg/injection, schedule: Q01DX009 (ip), vehicle: saline); 96 % of control (dose: 2.5 mg/kg/injection, schedule: Q04DX003 (ip), vehicle: saline); 96 % of control (dose: 3.74 mg/kg/injection, schedule: Q01DX009 (ip), vehicle: saline with Tween-80). Also, the T/C (dose: 5.0 mg/kg/injection, schedule: Q01DX001 (ip), vehicle: acetone) is 95 % of control.

Turning to `O=S1(=O)CC(c2ccc(Br)cc2)Nc2ccccc21` (stereo unspecified), the T/C by setting is: under setting [13], 98 % of control; (dose: 100.0 mg/kg/injection, schedule: Q04DX003 (ip), vehicle: acetone) 97 % of control; under setting [14], 101 % of control; (dose: 200.0 mg/kg/injection, schedule: Q04DX003 (ip), vehicle: acetone) 100 % of control; under setting [15], 98 % of control; (dose: 400.0 mg/kg/injection, schedule: Q04DX003 (ip), vehicle: acetone) 100 % of control.

Turning to `COc1ccc(Oc2cccc3c2CCN(C)C3)cc1`, the T/C runs as follows: (dose: 12.5 mg/kg/injection, schedule: Q04DX002 (ip), vehicle: Klucel (hydroxypropylcellulose) (HPC)) 102 % of control; (dose: 25.0 mg/kg/injection, schedule: Q04DX002 (ip), vehicle: Klucel (hydroxypropylcellulose) (HPC)) 115 % of control; (dose: 50.0 mg/kg/injection, schedule: Q04DX002 (ip), vehicle: Klucel (hydroxypropylcellulose) (HPC)) 97 % of control.

With `CCC1CCCCC1=O` (stereo unspecified), the T/C by setting is: under setting [10], 98 % of control; under setting [7], 110 % of control; under setting [11], 97 % of control; under setting [8], 111 % of control; under setting [12], 101 % of control; under setting [9], 94 % of control.

Turning to `CCCCCCCCCCCCCCCCCCNC(=S)Nc1ccc(S(=O)(=O)c2ccc(NC(=S)NCCCCCCCCCCCCCCCCCC)cc2)cc1`, the T/C by setting is: (dose: 50.0 mg/kg/injection, schedule: Q01DX001 (ip), vehicle: saline) 98 % of control; under setting [13], 87 % of control; under setting [15], 106 % of control.

With `S=C(Nc1ccccc1)NC1CC2C=CC1CC2` (stereo unspecified), the T/C under setting [13] was 90 % of control, the T/C under setting [14] is 92 % of control and the T/C under setting [15] was 113 % of control.

Take `COC(=O)/C=C/N1C(=O)c2ccccc2C1=O`: the T/C runs as follows: under setting [1], 96 % of control; under setting [2], 102 % of control; under setting [3], 98 % of control; under setting [4], 92 % of control; under setting [5], 98 % of control; under setting [6], 96 % of control.

Regarding `O=C(O)c1c(Br)c(Br)c(Br)c(Br)c1C(=O)Nc1ccc(Br)cc1`, the T/C under setting [1] was 104 % of control and the T/C under setting [3] was 101 % of control.
